Results as given in US20110319495A1, “Pharmaceutical Composition for Hepatitis Treatment and Applications” (priority 2010, published 2011).

How the values were obtained:
HO-1 [1] = assay: HO-1 mRNA expression in HepG2 cells (real-time PCR); type: cell-based, human; conditions: lucidone 1, 5, 10 μg/ml or curcumin 10 μg/ml, with 100 mM alcohol, standardized to β-actin
Experimental: Trizol reagent (Invitrogen Life Technologies, Carlsbad, Calif., USA) is used to extract total RNA of cells. One step RT-PCR is used for reverse transcription of mRNA of HO-1 and β-actin into cDNA, then real time-PCR (Applied Biosystems) is applied to real-time expression of HO-1 and β-actin.
Said real-time PCR is used to detect PCR products by combining DNA and SYBR Green. The thermal cycle is: 3 m at 96° C.; 1 m at 96° C. in 40 cycles, 30 s at 50° C. and 90 s at 72° C.

HepG2 cells [2] = assay: Lipid peroxidation degree (MDA) in alcohol-treated HepG2 cells; type: cell-based, human; conditions: lucidone 1, 5, 10 μg/ml or curcumin 10 μg/ml, 1 h before 100 mM alcohol for 24 h
HO-1 [3] = assay: HO-1 protein expression in HepG2 cells (Western blotting); type: cell-based, human; conditions: lucidone 1, 5, 10 μg/ml or curcumin 10 μg/ml, with 100 mM alcohol
HepG2 cells [4] = assay: Glutathione content in alcohol-treated HepG2 cells; type: cell-based, human; conditions: lucidone 1, 5, 10 μg/ml or curcumin 10 μg/ml, 1 h before 100 mM alcohol for 24 h
Experimental: A currently available GSH-96-well plate colorimetric GSH assay kit, Oxis International, Foster City, Calif., USA) is used to measure the content of glutathione (GSH). In brief, 40 μl chromogenic reagent dissolved in acid is added into 40 μl non-protein hepatocyte lysate, and added with 40 μl NaOH (30%), 40 μl color developer and buffer solution to form a mixed solution. Next, the mixed solution is shaken gently, and placed in room temperature for 10 m. Finally, a spectrometer (ELISA microplate reader, μQuant, Bio-Tek instruments, Inc., Winooski, Vt., USA) is used to detect the absorbance at wavelength 412 nm, and compared with a GSH absorbance curve of known concentration to judge the content of GSH. Similarly, the content of glutathione in the experimental mouseserum can be measured.

Nrf-2 and ARE = assay: Bonding activity of Nrf-2 and ARE in HepG2 cells (EMSA); type: cell-based, human; conditions: 1, 5, 10 μg/ml with 100 mM alcohol, dose-dependent
Nrf-2 = Nrf-2 translocation in HepG2 cells (Western blotting of cytoplasm and nuclear extracts); type: cell-based, human; conditions: 1, 5, 10 μg/ml with 100 mM alcohol
Experimental: The cytosolic extracts and nuclear extracts are prepared as per the known test procedures using the currently available test kit (protocol #78833 Nuclear and Cytoplasmic Extraction Reagent kit). And, the common protein assay reagent (Bio-Rad) is used to measure the concentration of protein.
Western blotting is implemented as per the known test procedures in the relevant field, of which said anti-body and enhanced chemiluminescene regents (ECL, Pierce) are used for immunoblotting, and then an imaging device (Viogene Biotek, Sunnyvale, Calif., USA) is used for observing the results.
The aforementioned HepG2 cells cultivated normally are grouped, and then separately cultivated 1 h together with 0, 1, 5, 10 μg/ml lucidone (0 μg/ml, negative control group) or 10 μg/ml curcumin (curcumin, a known antioxidation compound, taken as a positive control group), and then alcohol (100 mM) is added for 24 h cultivation to stimulate oxidation stress. […]
HO-1 is one of ARE-driven antioxidant genes. […] In this experiment, the content of Nrf-2 in cytoplasm and nuclear extracts of tested HepG2 cells, as well as the bonding activity of Nrf-2 and ARE is measured (refer to relevant experimental methods in preferred embodiment 1).
Said content refers to the color strength of the result from Western blotting calculated by typical software in the field.

HepG2 cells [5] = assay: Content of ALT and AST in culture solution of alcohol-treated HepG2 cells; type: cell-based, human; conditions: 1, 5, 10 μg/ml, 1 h before 100 mM alcohol for 24 h; dose-dependent; effect equivalent to curcumin 10 μg/ml
Experimental: (§1) A currently available test kit (Randox Laboratories, Antrim, UK) is applied to test the concentration of culture solution after cultivation of HepG2 cells as well as the concentration of ALT and AST in mouse serum. In brief, the experiment is designed to obtain the culture solution after cultivation of HepG2 cells and the serum of experimental mouse by the recommended test procedures.
(§2) The aforementioned HepG2 cells cultivated normally are grouped, and then separately cultivated 1 h together with 0, 1, 5, 10 μg/ml lucidone (0 μg/ml, negative control group) or 10 μg/ml curcumin (curcumin, a known antioxidation compound, taken as a positive control group), and then alcohol (100 mM) is added for 24 h cultivation to stimulate oxidation stress. The experiment groups and control groups are configured in Table 1:
(§3) The content of ALT, AST and tumor necrosis factor-α (TNF-α) in the tested culture solution of HepG2 cells is measured (refer to preferred embodiment 1 [test of ALT and AST concentration] and [measurement of tumor necrosis factor-α ]).

reactive oxygen species = assay: Accumulation of reactive oxygen species in alcohol-treated HepG2 cells (DCF-DA); type: cell-based, human; conditions: 1, 5, 10 μg/ml, 1 h before 100 mM alcohol for 24 h; dose-dependent; effect equivalent to curcumin 10 μg/ml
Experimental: A currently available DCF-DA (dihydrodichloro-fluorescein diacetate; Sigma, USA) is used to monitor the accumulation of reactive oxygen species (ROS) in cells. In brief, the cells (1×10^7) are wetted by phosphate buffer solution, and then added into 10 μm DCF-DA for 4 h cultivation at 37° C., and then fluorescence spectrophotometer is used to measure the fluorescence (488 nm/530 nm).
as §2
The content of reactive oxygen species and nitric oxide in the tested culture solution of HepG2 cells is measured (refer to preferred embodiment 1 [Test of accumulation of reactive oxygen species in cells] and [Griess nitrite test]).
FIG. 3A depicts the content of reactive oxygen species of HepG2 cells in various groups, of which the fluorescence strength of DCF-DA indicates the content of reactive oxygen species. FIG. 3B depicts the generation of nitric oxide of HepG2 cells in various groups, of which nitrite generation indicates the generation of nitric oxide.

tumor necrosis factor-α = assay: Content of TNF-α in culture solution of alcohol-treated HepG2 cells (ELISA); type: cell-based, human; conditions: 1, 5, 10 μg/ml, 1 h before 100 mM alcohol for 24 h; dose-dependent; effect equivalent to curcumin 10 μg/ml
Experimental: (§4) According to the principle of Griess reaction, nitrite accumulated from the supernatant liquid cultivated by cells and mouse serum is measured to obtain indirectly the generation of nitric oxide. The supernatant liquid cultivated by cells and tumor necrosis factor-α in the serum are measured using the currently available human TNF-αELISA kit. In brief, aforementioned HepG2 cells of […] are separately cultivated in 96-well plate, and then added with lucidone and alcohol to cultivate them for 24 h. Next, the culture solution is diluted by the work reagent of aforementioned kit by a percentage of 1:2. Then, every 100 μl diluted culture solution is subject to ELISA reaction as per the operating instruction of aforementioned kit, and then a spectrometer is used to detect the absorbance at wavelength 450 nm so as to judge the content of tumor necrosis factor-α; in the mouse experiment, the mouse serum is diluted properly and then the content of tumor necrosis factor-α is tested as per the operating instruction of aforementioned kit. […]
as §3

[6] = test system: mouse suffered by hepatitis arising from alcohol; assay: Content of ALT, AST, nitric oxide and TNF-α in serum, mouse model of hepatitis arising from alcohol; type: in vivo; conditions: lucidone 100 mg/Kg/day i.p. 7 d, mean ± SD
Excerpt: (§5) The experimental mouse is selected from 4-week male mouse of ICR family (25±5 g) in Charles River (Taipei, Taiwan). Prior to the experiment, the experimental mouse will be bred for at least 1 week in constant temperature lab conditions wherein unlimited feedstock and water are supplied. All animals shall be governed by the Guide for the Care and Use of Laboratory Animals and relevant animal protection acts of Taiwan, and approved by local ethics commissions. 80% alcohol or lucidone is applied to aforementioned experimental mouse (1 mL/Kg) by following methods: alcohol is applied orally, or by intra-peritoneal injection, or alcohol and lucidone are applied orally, or by intra-peritoneal injection.
as §1
According to the principle of Griess reaction, nitrite accumulated from the supernatant liquid cultivated by cells and mouse serum is measured to obtain indirectly the generation of nitric oxide. The supernatant liquid cultivated by cells and tumor necrosis factor-α in the serum are measured using the currently available human TNF-αELISA kit. In brief, aforementioned HepG2 cells of […] are separately cultivated in 96-well plate, and then added with lucidone and alcohol to cultivate them for 24 h. Next, the culture solution is diluted by the work reagent of aforementioned kit by a percentage of 1:2. Then, every 100 μl diluted culture solution is subject to ELISA reaction as per the operating instruction of aforementioned kit, and then a spectrometer is used to detect the absorbance at wavelength 450 nm so as to judge the content of tumor necrosis factor-α; in the mouse experiment, the mouse serum is diluted properly and then the content of tumor necrosis factor-α is tested as per the operating instruction of aforementioned kit.
(§6) The aforementioned mouse are grouped and then applied with lucidone for 7 d at a dose of 100 mg/Kg/day by means of intra-peritoneal injection, and at the 7th day, applied with lucidone and then applied with 80% alcohol orally or by intra-peritoneal injection at a dose of 1 ml/Kg, one time every 12 h with 3 doses; of which, the mouse of the control group is fed with 1% DMSO dissolved in saline solution.
Take out the serum of mouse suffered by hepatitis arising from alcohol as per aforementioned experimental design, and determine the content of ALT, AST, nitric oxide and TNF-α by the experimental methods in preferred embodiment 1.

nitric oxide = assay: Griess nitrite test, nitric oxide generation in alcohol-treated HepG2 cells; type: cell-based, human; conditions: 1, 5, 10 μg/ml, 1 h before 100 mM alcohol for 24 h; dose-dependent; effect equivalent to curcumin 10 μg/ml
Experimental: as §4
The content of reactive oxygen species and nitric oxide in the tested culture solution of HepG2 cells is measured (refer to preferred embodiment 1 [Test of accumulation of reactive oxygen species in cells] and [Griess nitrite test]). […]

[7] = test system: mouse suffered by hepatitis arising from alcohol; assay: Content of GSH and MDA in serum and tissue, mouse model of hepatitis arising from alcohol; type: in vivo; conditions: lucidone 100 mg/Kg/day i.p. 7 d, mean ± SD; for GSH in tissue / MDA in tissue: liver tissue
Excerpt: as §5
A currently available lipid peroxidation test kit (Oxford Biomedical Research, Oxford, Mich., USA) is used to measure the degree of lipid peroxidation. In brief, the cells are lysed by 200 μl cell lysis buffer. Then, 140 μl cell lysate is mixed with 455 μl N-methyl-2-phenylindole dissolved in acetonitrile and 105 μl acid (HCL, 37%), and placed in 45° C. for 60 m. malondialdehyde (MDA) is a main product of polyunsaturated fatty acid lysed by peroxidation. In this experiment, N-methyl-2-phenylindole is used to generate stable chromophore through reaction with MDA, and the formation of MDA is measured under maximum absorbance wavelength 535 nm as an index of measuring lipid peroxidation. Similarly, the degree of lipid peroxidation in the serum of experimental mouse can be measured.
A currently available GSH-96-well plate colorimetric GSH assay kit, Oxis International, Foster City, Calif., USA) is used to measure the content of glutathione (GSH). In brief, 40 μl chromogenic reagent dissolved in acid is added into 40 μl non-protein hepatocyte lysate, and added with 40 μl NaOH (30%), 40 μl color developer and buffer solution to form a mixed solution. Next, the mixed solution is shaken gently, and placed in room temperature for 10 m. […] Similarly, the content of glutathione in the experimental mouseserum can be measured.
as §6
Take out the serum and liver tissue of mouse suffered by hepatitis arising from alcohol as per aforementioned experimental design, and measure GSH content and lipid peroxidation degree as per the experimental methods in preferred embodiment 1.

[8] = intra-peritoneal injection alcohol (80%, 1 ml/Kg, 3 doses every 12 h)
[9] = orally taking alcohol (80%, 1 ml/Kg, 3 doses every 12 h)
[10] = intra-peritoneal injection alcohol

## COc1cc(/C=C/C(=O)CC(=O)/C=C/c2ccc(O)c(OC)c2)ccc1O [curcumin, reference compound]
HO-1 [1]
  expression of HO-1 mRNA in the cells: substantial increase
HepG2 cells [2]
  lipid peroxidation in the cells caused by alcohol: reduce greatly
HO-1 [3]
  expression of HO-1 protein in the cells: substantial increase
HepG2 cells [4]
  decline of GSH concentration in the cells caused by alcohol: can be avoided

## COC1=CC(=O)C(=C(O)/C=C/c2ccccc2)C1=O [lucidone]
HO-1 [1]
  expression of HO-1 mRNA in the cells: substantial increase
Nrf-2 and ARE
  bonding activity of Nrf-2 and ARE: improve significantly the bonding activity
Nrf-2
  Nrf-2 translocation (Nrf-2 content in nucleus): facilitate Nrf-2 translocation
HepG2 cells [5]
  content of ALT in cell culture solution: reduced the phenomenon of growing content
  content of AST in cell culture solution: reduced the phenomenon of growing content
Reactive oxygen species
  generation of reactive oxygen species caused by alcohol: reduced the generation
Tumor necrosis factor-α
  content of TNF-α in cell culture solution: reduced the phenomenon of growing content
[6]; [8]
  ALT in serum: 103.0 ± 65.6 U/L
  AST in serum: 139.6 ± 12.2 U/L
  TNF-α in serum: 3.91 ± 0.28 ng/mL
  nitric oxide in serum: 102.3 ± 0.52 nM/mL
[6]; [9]
  ALT in serum: 875.4 ± 57.2 U/L
  AST in serum: 508.0 ± 31.7 U/L
  TNF-α in serum: 10.0 ± 0.28 ng/mL
  nitric oxide in serum: 370.6 ± 0.53 nM/mL
Nitric oxide
  generation of nitric oxide caused by alcohol (nitrite): reduced the generation
HepG2 cells [2]
  lipid peroxidation in the cells caused by alcohol: reduce greatly
HO-1 [3]
  expression of HO-1 protein in the cells: substantial increase
HepG2 cells [4]
  decline of GSH concentration in the cells caused by alcohol: can be avoided
[7]; [10]
  GSH in tissue: 173.9 ± 58.5 nmol/mg of protein
  MDA in tissue: 20.9 ± 0.71 nmol/mg of protein
  GSH in serum: 42.9 ± 1.8 nmol/mg of protein
  MDA in serum: 16.2 ± 0.77 nmol/mg of protein
[7]; orally taking alcohol
  GSH in tissue: 261.2 ± 11.1 nmol/mg of protein
  MDA in tissue: 69.2 ± 0.67 nmol/mg of protein
  GSH in serum: 30.5 ± 1.0 nmol/mg of protein
  MDA in serum: 19.5 ± 0.41 nmol/mg of protein
